Common to all, as to experiment: NCI tumour cell line growth inhibition, 48 h
Assay [1] has as its system MDA-MB-435.
Assay [2] concerns NCI/ADR-RES ovarian.
Assay [3] deals with MDA-N.
The subject of assay [4] is DLD-1 colon.
Assay [5] has as its system DMS 114 small cell lung.
Assay [6] relates to LXFL 529 NSCLC.
The test system of assay [7] is DMS 273 small cell lung.
For assay [8], the system named is SNB-78 CNS.

Molecules are shown by their SMILES.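 48-hour exposure; five concentrations; linearly interpolated endpoints. GI50 marks 50% less growth. TGI denotes the concentration required for complete inhibition of growth.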 Some results are limits rather than exact numbers.

Turning to `COCCn1cc(-c2csc(-c3c[nH]c4ccc(Br)cc34)n2)c2cccnc21`, in assay [1], the GI50 is 4.12 µM and the TGI is more than 100 µM. In assay [2], the GI50 was 2.86 µM and the TGI is more than 100 µM.
For the molecule `Nc1c(F)cc(-c2nc3cc(F)ccc3[se]2)cc1Br`, in assay [1], the GI50 was 14.6 µM and the TGI is more than 100 µM. In addition, in assay [2], the GI50 is 38.9 µM and the TGI was more than 100 µM.
In the case of `CCCCCCCC(=O)[O][Hg][CH2]C1COC([CH2][Hg][O]C(=O)CCCCCCC)CO1` (stereo unspecified), the figures for the GI50 in assay [1], in assay [3] and in assay [2] were 12.9 µM, 15.6 µM and 20.2 µM, respectively. In addition, the figures for the TGI in assay [1], in assay [3] and in assay [2] were 25.8 µM, 30 µM and 49.6 µM, respectively.
Take `CCC[CH2][Pb]([Cl])([CH2]CCC)[CH2]CCC`: in assay [1], the GI50 is 0.0178 µM and the TGI worked out at 0.0366 µM. In addition, in assay [3], the GI50 was 0.0196 µM and the TGI was determined as 0.0461 µM.
Regarding `COC(=O)[C@]12CC[C@@H](C)[C@H](C)[C@@H]1C1=CC[C@@H]3[C@@]4(C)C(C=O)=C[C@@](C)(COC(=O)/C=C/c5ccccc5)[C@@H]4[C@H](O)C[C@@]3(C)[C@]1(C)CC2`, in assay [1], the GI50 is 3.04 µM and the TGI is 10.3 µM. For the same molecule, in assay [2], the GI50 is 3.64 µM and the TGI stood at 19.1 µM.
Take `COc1cc2c(cc1C)NC(=O)/C2=C\c1c[nH]c2ccccc12`: in assay [1], the GI50 is 14.3 µM and the TGI stood at 43.8 µM. Moreover, in assay [2], the GI50 is 13 µM and the TGI turned out to be 47.6 µM.
With `COc1cccc(NC(=O)C(=O)C2C=CCS2(=O)=O)c1` (stereo unspecified), the TGI in assay [4], in assay [5] and in assay [6] was more than 100 µM throughout.
Take `Fc1ccc(Nc2nc3ccccc3c3occc23)cc1`: the results for the GI50 in assay [1] and in assay [2] were 4.02 µM and 2.48 µM, respectively. In addition, the TGI in assay [1] worked out at 15.6 µM; in assay [2], 13 µM.
Taken in the same sequence, the figures for `Nc1ncnc2c1ccn2[C@@H]1O[C@H]([C@H](O)c2ccc(Cl)c(F)c2)[C@@H](O)[C@H]1O` were more than 100 µM, more than 100 µM, more than 100 µM and more than 100 µM.
The matching figures for `CCn1ccc(NS(=O)(=O)c2ccc(N)cc2)nc1=O`: more than 100 µM, more than 100 µM, more than 100 µM and more than 100 µM.
For the molecule `C[C@@H](Oc1cc(-n2cnc3ccc(OC[C@@H](O)CO)cc32)sc1C(N)=O)c1ccccc1Cl`, in assay [2], the GI50 was 1.64 µM and the TGI is more than 25 µM.
`C1C[OH+]CC[OH+]CCNCC[OH+]CC[OH+]CCN1.Cl.[Cl-].[Pt+4]`: the GI50 in assay [4], in assay [7] and in assay [6] was more than 100 µM each time. In addition, the TGI in assay [4], in assay [7] and in assay [6] was more than 100 µM each time.
In the case of `C[CH2][Sn]([CH2]C)([O]C(=O)c1ccc(OC)c(OC)c1OC)[O]C(=O)c1ccc(OC)c(OC)c1OC`, the GI50 is 25.7 µM in assay [5]; more than 100 µM in assay [7]; 12.6 µM in assay [6]; more than 100 µM in assay [1]; more than 100 µM in assay [3]; more than 100 µM in assay [2]. In addition, the TGI in assay [5] is more than 72.8 µM; in assay [7], more than 100 µM; in assay [6], 25.3 µM; in assay [1], more than 100 µM; in assay [3] it was more than 100 µM; in assay [2], more than 100 µM.
Turning to `COc1ccc(-c2cc(=O)c3c(O)cc(O)cc3o2)c(OC)c1OC`, the TGI in assay [4], in assay [5] and in assay [6] was more than 100 µM in each case.
Consider `COc1cc(/C=C2\C[C@H]3[C@@H]4CC=C5C[C@@H](OC(C)=O)CC[C@]5(C)[C@H]4CC[C@]3(C)[C@H]2OC(C)=O)ccc1OCCN1CCCC1`, for which, in assay [1], the GI50 is 13.3 µM and the TGI is 27.2 µM. For the same molecule, in assay [2], the GI50 was 10.2 µM and the TGI is 20.6 µM.
Regarding `C#Cc1cccc(NC(=O)c2ccc(NC(=O)CCl)cc2)c1`, the GI50 in assay [1] was 43.8 µM; in assay [2] it was 19.6 µM. For the same molecule, the TGI in assay [1] is more than 82.5 µM; in assay [2], 67.1 µM.
On to `Cc1ccc(S(=O)(=O)N2CCc3ccc(O)c4c3C2Cc2ccc3c(c2-4)OCO3)cc1` (stereo unspecified), for which, in assay [1], the GI50 is 0.216 µM and the TGI worked out at 0.539 µM. Besides, in assay [2], the GI50 was 0.348 µM and the TGI is 2.08 µM.
On to `CSc1ccc(C(=O)/C=C/c2ccccc2Cl)cc1`, for which, in assay [1], the GI50 was 12.4 µM and the TGI came to 30.2 µM. In assay [2], the GI50 is 18.9 µM and the TGI was found to be 40.1 µM.
Regarding `COc1cccc(Nc2nccc(-c3cnn4ncccc34)n2)c1`, in assay [1], the GI50 was 0.0609 µM and the TGI was determined as 0.25 µM. In addition, in assay [2], the GI50 was 0.0679 µM.
For the molecule `FC(F)(F)c1cc(Nc2ccc3cc(OCCCN4CCOCC4)ccc3n2)ccc1Cl`, in assay [1], the GI50 was 1.75 µM and the TGI is 3.61 µM. Besides, in assay [2], the GI50 is 2.69 µM and the TGI was 18 µM.
Take `CCOC1CC2OC(=O)C1C=C2C(=O)OC` (stereo unspecified): the TGI in assay [4] is 65.8 µM; in assay [5] it was 54.9 µM; in assay [6], 36.1 µM; in assay [8], more than 100 µM.
As for `[CH3][Sn]([CH3])([CH3])[O][N+](=O)[O-]`, the GI50 is 5.93 µM in assay [1], 5.14 µM in assay [3] and 2.3 µM in assay [2]. Further, the TGI in assay [1] is more than 10 µM; in assay [3], more than 10 µM; in assay [2], 5.7 µM.
In the case of `Cc1cc(Cl)cc(Cc2cc(Cl)cc(C)c2O)c1O`, in assay [1], the GI50 is 2.05 µM and the TGI turned out to be 6.39 µM. For the same molecule, in assay [2], the GI50 was 2.07 µM and the TGI was 5.95 µM.

These data come from PubChem BioAssay (NCI).
